The test system of experiment [1] is human aortic endothelial cells (HAEC). The experiment in a line: LPS-induced actin cytoskeleton disassembly, phalloidin staining, endothelial cells. It is filed as cell-based. Conditions: LPS 10 μg/ml, 10 min. An excerpt:
In light of the findings in the previous Examples, and using the materials prepared in above, the effect of the gelsolin binding by LPS was studied to determine the effect on cellular responses in vitro. Cell cultures of human aortic endothelial cells (HAEC) and rat primary astrocytes were used to evaluate the effect of LPS on actin. Both of these cell types have mCD14 (membrane bound C14) and TLR LPS receptors (Faure, et al., J. Biol. Chem. 275:11058-11063 (2000); Bsibsi, et al., J. Neuropathol. Exp. Neurol. 61:1013-1021 (2002); Bowman, et al., Glia 43:281-291 (2003)).
HAECs (primary human aortic endothelial cells) (ATCC, Rockville, Md. or Clonetics, San Diego, Calif.), will grow to confluence through passages 5-9 in endothelial cell growth medium supplemented with 2% fetal bovine serum, 10 μg/liter human recombinant epidermal growth factor, 1 mg/liter hydrocortisone, 50 μg/ml gentamicin, 50 ng/ml amphotericin-B, in a 37° C. humidified atmosphere of 95% air:5% C02.
HAECs and astrocytes cultures were incubated for 10 minutes in medium containing 10 μg/ml LPS alone, or LPS that had been pre-incubated with 0.16 mg/ml of human gelsolin. […] Location of transcription factor nuclear factor-kappaB (NF-κB) was observed using a monoclonal antibody to NF-κB (Molecular Probes), and cell nuclei were detected by counter-staining with 4′, 6-diamidino-2-phenylindole dihydrochloride (DAPI) (Sigma).

The target in experiment [2] is T1, gelsolin activity in whole human serum (Homo sapiens, UniProt P06396).
T1 construct: from tissue; host or cells: whole human serum (2.5 µl)
T1 sequence (P06396 28-782): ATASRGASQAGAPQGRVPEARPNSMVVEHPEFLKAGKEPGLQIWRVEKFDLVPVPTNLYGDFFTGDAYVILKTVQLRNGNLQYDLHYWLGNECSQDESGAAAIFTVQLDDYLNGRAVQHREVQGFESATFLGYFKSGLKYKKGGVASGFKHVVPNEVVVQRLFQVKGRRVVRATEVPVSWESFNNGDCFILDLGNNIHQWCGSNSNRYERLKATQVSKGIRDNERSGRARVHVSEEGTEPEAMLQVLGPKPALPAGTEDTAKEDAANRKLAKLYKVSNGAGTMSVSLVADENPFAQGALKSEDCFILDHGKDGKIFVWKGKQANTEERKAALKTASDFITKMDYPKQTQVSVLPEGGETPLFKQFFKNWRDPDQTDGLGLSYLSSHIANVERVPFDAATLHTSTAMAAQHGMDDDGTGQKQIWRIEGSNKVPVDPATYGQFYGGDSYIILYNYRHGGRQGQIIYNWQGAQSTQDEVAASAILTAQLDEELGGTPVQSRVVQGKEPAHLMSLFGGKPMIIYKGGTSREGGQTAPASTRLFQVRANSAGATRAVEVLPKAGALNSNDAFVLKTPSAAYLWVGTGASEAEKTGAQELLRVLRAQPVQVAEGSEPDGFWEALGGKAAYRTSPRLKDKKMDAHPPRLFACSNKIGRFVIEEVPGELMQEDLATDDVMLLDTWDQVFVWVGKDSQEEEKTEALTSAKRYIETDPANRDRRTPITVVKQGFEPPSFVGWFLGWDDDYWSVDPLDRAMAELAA
The experiment is described as follows: Actin filament severing activity of whole human serum. Conditions: larger amounts needed than with pure gelsolin. It is filed as biochemical. Here is the method:
(§1) As shown, recombinant human gelsolin (rhGLS) (FIG. 4A) and blood serum (FIG. 4B) severing activity was measured in 0.4 μM pyrene-labeled F-actin samples (polymerized with 50% pyrene-labeled G-actin), after adding gelsolin (16 nM)/serum (2.5 μl), or their combination with one of the following: LPS (from different species), PIP2 (phosphatidyl-inositol-4,5-bisphosphate), LPA (lysophosphatidic acid), lipid A (the LPS derivative lacking polysaccharide) or PS (phosphatidylserine). The fluorescence intensity of F-pyrene actin was then monitored for 10 minutes, and the severing activity was calculated based on decreasing fluorescence. Severing activity was determined from a decrease in rate of fluorescence during depolymerization, and the depolymerization rate was calculated from the slope of the early decrease in fluorescence.

The target of experiment [3] is T2, recombinant human gelsolin (rhGLS) (Homo sapiens, UniProt P06396).
T2 construct: purchased Biogen IDEC, Inc., Cambridge, Mass; host or cells: E. coli
T2 sequence (P06396 28-782): as above
The experiment in a line: Actin filament severing activity of purified gelsolin (pyrene F-actin depolymerization). It is filed as biochemical. Here is the method: To determine gelsolin's severing activity, rates of fluorescence decrease were evaluated during depolymerization. Monomeric G-actin was prepared from an acetone powder of rabbit skeletal muscle according to previously published methods (Spudich et al., J. Biol. Chem […]). The non-polymerizing solution contained 2 mM TRIS, 0.2 mM CaCl2, 0.5 mM ATP (adenosine triphosphate), 0.2 mM DTT (dithiothreitol) pH 7.4. Actin was polymerized by adding 150 mM KCl and 2 mM MgCl2 to the G-actin solutions and incubating for 1 hour at room temperature.
For F-actin severing assays, in general, a small volume (typically 5 μl) of the gelsolin composition is added to a similar volume of pyrene-labeled F-actin at a concentration adjusted to provide an actin:gelsolin ratio of approximately 10:1 (typically 1 μM gelsolin and 10 μM actin). This mixture is the diluted to 0.5 μM in a larger volume of F-actin buffer, and the filament severing efficiency is calculated from the initial slope of the fluorescence change. This reflects the rate of depolymerization that, in turn, is proportional to the number of cuts made by gelsolin. The LPS/gelsolin reaction can be done under any ionic condition, and the addition to F-actin requires the presence of […] Ca^2+ to activate the gelsolin. […] The actin nucleation reaction is similar except that in the latter case, the gelsolin/LPS mixture is added to a more dilute solution of G-actin (typically, 1 or 2 μM) in low ionic strength buffer followed immediately by addition of 150 mM KCI and 2 mM MgCl2 to initiate polymerization.
as §1

Experiment [4] deals with T2, recombinant human gelsolin (rhGLS). The experiment is described as follows: Change of gelsolin OD at 280 nm after adding lipids. Conditions: OD 280 nm. It is filed as binding. Here is the method: Therefore, to determine changes of gelsolin OD at 280 nm, different amounts of LPS, LPA and PS were added to recombinant human gelsolin (rhGLS) solutions and OD emission spectra were recorded using spectrophotometer Genesys 6 (Thermo-Spectronic, USA).

“Also recorded” adds a separate entry of the source.

For the substance lipopolysaccharide [LPS], the “effect of LPS alone on actin cytoskeleton” value in experiment [1] is recorded as “rapidly induced the disassembly of the actin cytoskeleton; also recorded: disassembly of the actin cytoskeleton was readily induced; also recorded: rapidly induced disassembly of the actin cytoskeleton”. Besides, in experiment [2], the “inhibition of gelsolin activity in whole human serum” value is reported as “able to inhibit gelsolin activity; also recorded: inhibitory efficiency varies with the bacterial species”. Moreover, the “inhibition of severing activity of gelsolin” value in experiment [3] (0.02 μM LPS (100 ng/ml), 0.016 μM gelsolin) is 50%. The “inhibition of severing capability of gelsolin” value in experiment [3] (0.1 μM LPS, 0.016 μM gelsolin) was 90%. The “inhibition of severing activity of purified human gelsolin” value in experiment [3] (LPS concentration not stated at this place) came to 50%. In experiment [3] (molar basis comparison), the “inhibitory effect on severing activity of purified gelsolin” value is “more potent inhibitor than either LPA or P1P2; also recorded: more potent inhibitor; also recorded: more potent inhibitor of gelsolin actin severing capability than either LPA or PIP2”. Further, in experiment [4], the “maximal decrease in UV absorbance of intact gelsolin” value was approximately 35%.
